{"source": "patent US20050037975A1", "about": "“Method for treatment of glutamate related disorders” (priority 1997, published 2005)", "key": {"[1]": {"tested_on": "brain glutamate receptors (synaptic membranes)", "experiment": "[3H]glutamate binding to mouse brain synaptic membranes in vitro", "conditions": "for effect on glutamate binding to synaptic membrane preparations: in vitro, without glycine", "experimental": "Binding Studies—Synaptic membranes (100 μg protein) were isolated (Y. H. Lee et al., J. Neurosci. Res. 40, 797-806 (1995)) form whole brain homogenate of male Swiss Webster mice and were incubated in 0.1 mM L-glutamate for 30 minutes at 25° C. After addition of 50 nM of [^3H]glutamate, incubation was continued for an additional 45 minutes. Reactions were terminated by centrifugation at 4° C. to separate membrane-bound from free radioactivity. […] The rate (k) and maximum percent blockage of glutamate binding (M) by DETC-MeSO (1) during the incubation time (t) was determined by fitting the equation [% inhibition]=M(1−e^−kh) to these day by use of the program Grafit (Erithicus Software Ltd.). This equation was derived for first-order inactivation by a group specific reagent that gives a partial effect. If “A” is the percent of binding activity that remains after extensive exposure (t=of the receptor to excess DETC-MeSO, then M=100−A)e^−kh+A; substituting (100−M) for “A” and [100−% inhibition] for “a” in this equation gives the one employed for purposes of data analyses. […] A second equation was employed in the analysis of binding data that defines partial, irreversible inactivation of two distinct groups of receptors [% inhibition]=M1(1−e^−k1^IT)+M2(1−e^−k1^IT), where M1 and M2 are the maximum amount of inhibition obtained for complete modification of each receptor population and k1 and k2 are the rate constants for these modifications, respectively.\nSix determinations of the effect of DETC-MeSO were made at each concentration tested (1, 5, 10, 50, 100, 200, and 1000 μM) and the average value is shown with error bars for one standard deviation."}, "ALDH2": {"tested_on": "ALDH2", "experiment": "In vitro inactivation of aldehyde dehydrogenase", "format": "biochemical", "conditions": "reversible or irreversible", "experimental": "To test whether the protective effect of DETC-MeSO in hyperbaric O2-induced convulsions in mice could be due to inhibition of succinic semi-aldehyde dehydrogenase (SSA DH), mechanistically related to ALDH2, the sensitivity of SSA DH to inactivation by DETC-MeSO was determined. Potentially, inhibition of SSA DH in brain could offset the build up of ammonia known to occur and produce more GABA. In vitro both ALDH2 and SSA DH are inactivated by DETC-MeSO at 47 M-1 s-1 and 300 M-1 s-1, respectively."}, "[2]": {"tested_on": "brain glutamate receptors (synaptic membranes)", "experiment": "Glutamate binding to synaptic membranes isolated from treated mice", "format": "in vivo, mouse", "conditions": "30 μmol/kg intravenous, mice", "experimental": "Binding Studies—Synaptic membranes (100 μg protein) were isolated (Y. H. Lee et al., J. Neurosci. Res. 40, 797-806 (1995)) form whole brain homogenate of male Swiss Webster mice and were incubated in 0.1 mM L-glutamate for 30 minutes at 25° C. After addition of 50 nM of [^3H]glutamate, incubation was continued for an additional 45 minutes. Reactions were terminated by centrifugation at 4° C. to separate membrane-bound from free radioactivity. Nonspecific binding (radioactivity bound in the presence of 0.5 mM unlabeled glutamate) averages: 20-30% of total radioactivity bound. The rate (k) and maximum percent blockage of glutamate binding (M) by DETC-MeSO (1) during the incubation time (t) was determined by fitting the equation [% inhibition]=M(1−e^−kh) to these day by use of the program Grafit (Erithicus Software Ltd.). This equation was derived for first-order inactivation by a group specific reagent that gives a partial effect. If “A” is the percent of binding activity that remains after extensive exposure (t=of the receptor to excess DETC-MeSO, then M=100−A)e^−kh+A; substituting (100−M) for “A” and [100−% inhibition] for “a” in this equation gives the one employed for purposes of data analyses. […] A second equation was employed in the analysis of binding data that defines partial, irreversible inactivation of two distinct groups of receptors [% inhibition]=M1(1−e^−k1^IT)+M2(1−e^−k1^IT), where M1 and M2 are the maximum amount of inhibition obtained for complete modification of each receptor population and k1 and k2 are the rate constants for these modifications, respectively.\nSynaptic membranes were prepared from the brains of mice injected with DETC-MeSO (5.2 mg/kg, i.p.). The ability of synaptic membrane preparations isolated from DETC-MeSO-treated mice to bind glutamate was compared with similar preparations isolated from control animals. FIG. 3(A) illustrates the results obtained from synaptic membranes prepared from brains of mice killed two hours after a single dose of DETC-MeSO, or two hours after the last injection of multiple consecutive doses (5.2 mg/kg, i.p., daily for seven days). Either single or multiple dosing with DETC-MeSO reduced the capacity of synaptic membranes to bind glutamate by approximately 50%, the maximum effect obtained in vitro (FIG. 3). Each bar represents the average of results obtained from four animals and the error bars are for one standard deviation."}, "mouse liver low Km ALDH": {"biological_target": "T1, mouse liver low Km ALDH (Mus musculus, UniProt P47738)", "T1 construct": "Liver aldehyde dehydrogenase was extracted and assayed as previously described; from tissue; host or cells: liver of treated mice", "T1 sequence (P47738 20-519)": "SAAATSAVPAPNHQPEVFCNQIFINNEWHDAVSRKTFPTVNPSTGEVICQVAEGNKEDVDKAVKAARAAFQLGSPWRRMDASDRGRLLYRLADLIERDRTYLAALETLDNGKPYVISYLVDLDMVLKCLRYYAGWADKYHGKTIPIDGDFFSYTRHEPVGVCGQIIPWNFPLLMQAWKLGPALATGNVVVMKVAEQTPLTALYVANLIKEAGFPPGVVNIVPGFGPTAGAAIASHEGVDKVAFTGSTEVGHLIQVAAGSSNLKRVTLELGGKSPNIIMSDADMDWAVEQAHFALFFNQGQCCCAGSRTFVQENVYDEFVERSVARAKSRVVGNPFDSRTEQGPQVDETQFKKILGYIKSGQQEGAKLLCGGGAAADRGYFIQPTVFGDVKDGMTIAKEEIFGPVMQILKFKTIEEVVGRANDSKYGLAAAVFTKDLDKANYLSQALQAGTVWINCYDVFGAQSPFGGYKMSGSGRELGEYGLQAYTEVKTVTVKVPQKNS", "experiment": "In vivo inhibition of mouse liver aldehyde dehydrogenase", "conditions": "mouse; 30 μmol/kg intravenous, mice", "experimental": "Reagents—DETC-MeSO was synthesized by the method of Hart and Faiman (B. W. Hart et al., Biochem. Pharmacol.), 43, 403-406 (1992). Carbamoylated glutathione, S-(N,N-diethylcarbamoyl)glutathione (DETC-GS), was prepared essentially as described by Jin et al. (L. Jin, supra). The structures and purity of DETC-MeSO and DETC-GS were confirmed by 300 MHz NMR and FAB-tandem mass spectrometry. A QE300 NMR spectrometer (General Electric, Fremont, Calif.) and Autospec-Q Tandem Hybrid mass spectrometer (Fiscons/VG Analytical Limited, Manchester, England) were employed for these analyses. Liver aldehyde dehydrogenase was extracted and assayed as previously described (B. W. Hart et al., supra). MetSOX monosodium L-glutamate, glycine, glutathione, and NMDA were purchased from Sigma Chemical Company (St. Louis, Mo.). L-[3-^3H]Glutamate (46 Ci/mmol) was obtained from Amerisham Life Science (Buckinghamshire, England)."}, "[3]": {"experiment": "Carbamoylation of glutathione by DETC-MeSO under physiological conditions", "conditions": "under physiological conditions", "description": "This rate of reaction was approximate an order of magnitude faster than that of the more familiar α-haloketone functionality."}, "[4]": {"biological_target": "T2, rat liver mitochondrial low Km ALDH (Rattus norvegicus, UniProt P11884)", "T2 construct": "differential centrifugation carried out to isolate the mitochondrial faction; from tissue; host or cells: liver mitochondria of male Sprague-Dawley derived rats", "T2 sequence (P11884 20-519)": "T1 sequence (P47738 20-519) with H13Q, R34K, R67Q, G237D, N313D, D422N", "experiment": "In vitro inhibition of rat liver mitochondrial low Km aldehyde dehydrogenase (isolated mitochondria)", "format": "biochemical", "conditions": "one hour incubation", "experimental": "To determine whether a compound of formula (I) can inhibit low Km aldehyde dehydrogenase, an amount of the compound is added to isolated mitochondria. To prepare isolated mitochondria, male Sprague-Dawley derived rats weighing 200-400 g were anesthetized with carbon dioxide and then decapitated. The livers from untreated rats were homogenized in 0.25 M sucrose and differential centrifugation carried out to isolate the mitochondrial faction. The mitochondria were solubilized with sodium deoxycholate, and mitochondrial low Km ALDH activity determined by the method of S. O. C. Tottmar et al., Biochem. J. 135, 577 (1973).\nMitochondria were isolated from the liver of untreated rats and resuspended in 0.1 M phosphate buffer (pH=7.4). Incubations contained 2 mg of mitochondrial protein, to which was added DETC-Me SO at 0.2 μM, 2.0 μM, 20 μM or 200 μM, or DDTC-Me SO at 0.5 μM, 2.5 μM, 10 μM; 25 μM, 50 μM or 100 μM. The DETC-Me SO or DDTC-Me SO was dissolved in ethanol and the incubations carried out for one hour. Control incubations contained ethanol alone.\nAt the end of the incubation, the mitochondria were isolated by centrifugation, resuspended in 0.25 M sucrose buffer and solubilized with deoxycholate. Low Km ALDH activity was determined by the method of S. O. C. Tottmar et. al., cited above."}, "[5]": {"biological_target": "T2, rat liver mitochondrial low Km ALDH", "experiment": "Liver aldehyde dehydrogenase determined in vivo", "conditions": "intraperitoneal (IP), liver taken eight hours later", "experimental": "To determine if a compound of formula (I) can inhibit aldehyde dehydrogenase activity in vivo, doses of DETC-Me SO (1.3 mg/kg, 2.6 mg/kg, 5.2 mg/kg, 10.3 mg/kg and 20.6 mg/kg), were administered to male Sprague Dawley derived rats weighing 200-400 g. The rats were bred from a resident colony maintained in the Animal Care Unit at the University of Kansas. Rats were maintained on a 12-hour lights cycle with access to food and water ad lib until the night before an experiment, at which time food was removed. Animals were fasted for 12 hours prior to drug administration.\nAll experiments were carried out in the morning. Rats were treated with the doses of DETC-Me SO or DETC-Me described above, which were dissolved in polyethylene glycol 200. Eight hours later, the rats were anesthetized with carbon-dioxide and then decapitated. The liver was quickly removed and the low Km aldehyde dehydrogenase determined. Control rats were treated with […] vehicle only, and each control data point also represents an average of four rats.\nThe liver from drug-treated and control rats was homogenized in 0.25 M sucrose and differential centrifugation was carried out to isolate the mitochondrial fraction. The mitochondria were solubilized with sodium deoxycholate, and mitochondrial low Km and total (high and low) aldehyde dehydrogenase activity determined by the method of S. O. C. Tottmar et al., cited above."}}, "note": "Substitutions are numbered along the chain they refer to."}
{"compound": "oxidized glutathione [GSSG, reference compound]", "values": [{"measurement": "effect on glutamate binding to synaptic membrane preparations", "setting": "[1]", "value": "reversibly blocked"}]}
{"compound": "CCN(CC)C(=O)SC[C@H](NC(=O)CC[C@H](N)C(=O)O)C(=O)NCC(=O)O", "note": "[DETC-GS, S-(N,N-diethylcarbamoyl)glutathione]", "values": [{"measurement": "effect on aldehyde dehydrogenase in vitro", "setting": "ALDH2", "value": "no effect"}, {"measurement": "irreversible brain glutamate receptor blockage", "setting": "[2]", "value": "26.9±4.3", "unit": "%"}, {"measurement": "effect on glutamate binding to synaptic membrane preparations", "setting": "[1]", "value": "reversibly blocked"}, {"measurement": "inhibition at 30 µmol/kg", "setting": "mouse liver low Km ALDH", "value": "30.1 ± 1", "unit": "%"}, {"measurement": "stability of the carbamoylated glutathione", "setting": "[3]", "value": "relatively stable"}]}
{"compound": "CCN(CC)C(=S)[S+](C)[O-]", "note": "(centres unmarked) [DDTC-Me SO, S-Methyl-N,N-Diethyldithiocarbamate Sulfoxide]", "values": [{"measurement": "IC50", "setting": "[4]; 2 mg mitochondrial protein, read-out: concentration required for 50% inhibition", "value": "~15", "unit": "µM"}]}
{"compound": "CCN(CC)C(=O)SC", "note": "[DETC-Me, S-Methyl-N,N-Diethylthiolcarbamate]", "values": [{"measurement": "dose required to inhibit 50% of the low Km ALDH", "setting": "[5]", "value": 6.5, "unit": "mg/kg"}, {"measurement": "inhibition of low Km ALDH", "setting": "[4]; 200 μM", "value": 8, "unit": "%"}]}
{"compound": "CN[C@H](CC(=O)O)C(=O)O", "note": "[NMDA, N-methyl-D-asparate, reference compound]", "values": [{"measurement": "reversible blockage of glutamate binding", "setting": "[1]; 0.5 mM, in the presence of glycine (0.1 mM)", "value": "32±2", "unit": "%"}, {"measurement": "effect on glutamate binding to synaptic membrane preparations", "setting": "[1]", "value": "does not block glutamate binding"}]}
